From US20120053218A1, “TRIAZOLE DERIVATIVES AS VASOPRESSIN-RECEPTOR INHIBITORS FOR TREATING CARDIAC INSUFFICIENCY” (BAYER PHARMA AKTIENGESELLSCHAFT, priority 2009, published 2012)

Tests used:
human V2 receptor = biological target: T1, human V2 receptor (Homo sapiens, UniProt P30518); experiment: Cellular in vitro assay for vasopressin receptor activity (aequorin luminescence, CHO K1 cells), hV2; format: cell-based; settings: CHO cell line transfected with human V2 receptor and Gα16, agonist [Arg8]-vasopressin
T1 construct: expressed in transfected cells; host or cells: CHO K1 (ATCC), constitutively expressing modified aequorin and co-transfected with Gα16
Source text: (§1) The identification of agonists and antagonists of the V1a and V2 vasopressin receptors from humans and rats and also the quantification of the activity of the substances described here took place using recombinant cell lines. These cells derive originally from a hamster ovary epithelial cell (Chinese Hamster Ovary, CHO K1, ATCC: American Type Culture Collection, Manassas, Va. 20108, USA). The test cell lines constitutively express a modified form of the calcium-sensitive photoprotein aequorin, which, after reconstitution with the cofactor coelenterazine, emits light when there are increases in the free calcium concentration (Rizzuto R., Simpson A. W., Brini M., Pozzan T.; Nature 358 (1992) 325-327). In addition, the cells are stably transfected with the human or rat V1a or V2 receptors. In the case of the Gs-coupling V2 receptors, the cells are stably transfected with a further gene, which codes for the promiscuous Gα16 protein (Amatruda T. T., Steele D. A., Slepak V. Z., Simon M. I., Proc. Nat. Acad. Sci. USA 88 (1991), 5587-5591), either independently or as a fusion gene. The resulting vasopressin receptor test cells react to stimulation of the recombinantly expressed vasopressin receptors by intracellular release of calcium ions, which can be quantified by the resulting aequorin luminescence using a suitable luminometer (Milligan G., Marshall F., Rees S., Trends in Pharmaco. Sci. 17 (1996) 235-237).
(§2) Test procedure: On the day before the assay, the cells are plated out in culture medium (DMEM, 10% FCS, 2 mM glutamine, 10 mM HEPES) in 384-well microtiter plates and kept in a cell incubator (96% humidity, 5% v/v carbon dioxide, 37° C.). On the day of the assay, the culture medium is replaced by a Tyrode solution (140 mM sodium chloride, 5 mM potassium chloride, 1 mM magnesium chloride, 2 mM calcium chloride, 20 mM glucose, 20 mM HEPES), which additionally contains the cofactor coelenterazine (50 μM), and the microtiter plate is then incubated for a further 3-4 hours. The test substances in various concentrations are placed for 10 to 20 minutes in the wells of the microtiter plate before the agonist [Arg8]-vasopressin is added, and the resulting light signal is measured immediately in the luminometer. The IC50 values are calculated using the GraphPad PRISM computer program (Version 3.02).
(§3) The table below lists representative IC50 values for the compounds of the invention on the cell line transfected with the human V1a or V2 receptor: […]

human V1a receptor = biological target: T2, human V1a receptor (Homo sapiens, UniProt P37288); experiment: Cellular in vitro assay for vasopressin receptor activity (aequorin luminescence, CHO K1 cells), hV1a; format: cell-based; settings: CHO cell line transfected with human V1a receptor, agonist [Arg8]-vasopressin
T2 construct: expressed in transfected cells; host or cells: CHO K1 (ATCC), constitutively expressing modified aequorin
Source text: as §1, §2, §3

T2 sequence (P37288 whole entry): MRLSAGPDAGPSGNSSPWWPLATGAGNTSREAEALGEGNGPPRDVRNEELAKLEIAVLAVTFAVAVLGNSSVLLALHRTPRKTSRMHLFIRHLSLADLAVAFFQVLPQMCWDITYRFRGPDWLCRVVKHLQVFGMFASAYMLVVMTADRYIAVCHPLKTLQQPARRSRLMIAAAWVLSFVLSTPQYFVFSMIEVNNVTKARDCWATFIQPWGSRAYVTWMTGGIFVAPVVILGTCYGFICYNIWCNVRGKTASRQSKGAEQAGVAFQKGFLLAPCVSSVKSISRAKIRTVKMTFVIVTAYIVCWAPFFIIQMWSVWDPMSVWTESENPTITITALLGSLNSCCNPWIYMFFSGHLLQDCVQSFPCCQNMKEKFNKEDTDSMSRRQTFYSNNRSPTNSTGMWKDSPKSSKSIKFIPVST
T1 sequence (P30518 whole entry): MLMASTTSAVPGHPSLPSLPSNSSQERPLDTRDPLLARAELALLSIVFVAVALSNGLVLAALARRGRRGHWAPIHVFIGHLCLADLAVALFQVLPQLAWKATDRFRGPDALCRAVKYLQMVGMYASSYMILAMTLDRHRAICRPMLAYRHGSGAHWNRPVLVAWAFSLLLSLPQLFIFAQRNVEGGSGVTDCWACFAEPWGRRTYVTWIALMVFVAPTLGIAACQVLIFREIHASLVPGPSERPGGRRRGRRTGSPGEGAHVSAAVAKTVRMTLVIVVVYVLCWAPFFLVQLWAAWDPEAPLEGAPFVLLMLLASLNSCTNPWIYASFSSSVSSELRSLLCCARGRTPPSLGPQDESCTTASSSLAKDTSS

Work on `CCC(NC(=O)Cn1nc(-c2ccc(Cl)cc2)n(C[C@H](O)C(F)(F)F)c1=O)(C(N)=O)c1cccc(C(F)(F)F)c1` (single isomer, unassigned) [Example 14] yielded an IC50 (human V2 receptor) of 6.4 nM and an IC50 (human V1a receptor) of 6 nM.

With `CC(NC(=O)Cn1nc(-c2ccc(Cl)cc2)n(Cc2ccccc2F)c1=O)(C(N)=O)c1cccc(C(F)(F)F)c1` (single isomer, unassigned) [Example 25, 2-({[3-(4-Chlorophenyl)-4-(2-fluorobenzyl)-5-oxo-4,5-dihydro-1H-1,2,4-triazol-1-yl]acetyl}amino)-2-[3-(trifluoromethyl)phenyl]propanamide] the IC50 (human V2 receptor) was 16 nM and the IC50 (human V1a receptor) was 6 nM.

In the case of `CC(NC(=O)Cn1nc(-c2ccc(Cl)cc2)n(C[C@H](O)C(F)(F)F)c1=O)(C(=O)O)c1cccc(C(F)(F)F)c1` (stereo partly drawn) [Example 1, 2-[({3-(4-Chlorophenyl)-5-oxo-4-[(2S)-3,3,3-trifluoro-2-hydroxypropyl]-4,5-dihydro-1H-1,2,4-triazol-1-yl}acetyl)amino]-2-[3-(trifluoromethyl)phenyl]propanoic acid], the IC50 (human V2 receptor) is reported as 12 nM and the IC50 (human V1a receptor) is reported as 118 nM.

`C[C@@](NC(=O)Cn1nc(-c2ccc(Cl)cc2)n(C[C@H](O)C(F)(F)F)c1=O)(C(N)=O)c1cccc(C(F)(F)F)c1` [Example 3, (2S)-2-[({3-(4-Chlorophenyl)-5-oxo-4-[(2S)-3,3,3-trifluoro-2-hydroxypropyl]-4,5-dihydro-1H-1,2,4-triazol-1-yl}acetyl)amino]-2-[3-(trifluoromethyl)phenyl]propanamide] gave an IC50 (human V2 receptor) of 28 nM and an IC50 (human V1a receptor) of 106 nM.

For `C[C@](NC(=O)Cn1nc(-c2ccc(Cl)cc2)n(C[C@H](O)C(F)(F)F)c1=O)(C(N)=O)c1cccc(C(F)(F)F)c1` [Example 4, (2R)-2-[({3-(4-Chlorophenyl)-5-oxo-4-[(2S)-3,3,3-trifluoro-2-hydroxypropyl]-4,5-dihydro-1H-1,2,4-triazol-1-yl}acetyl)amino]-2-[3-(trifluoromethyl)phenyl]propanamide], the IC50 (human V2 receptor) was 3.7 nM and the IC50 (human V1a receptor) was 2.2 nM.

`C[C@](NC(=O)Cn1nc(-c2ccc(Cl)cc2)n(C[C@H](O)C(F)(F)F)c1=O)(C(N)=O)c1ccccc1Cl` [Example 17, (2R)-2-(2-Chlorophenyl)-2-[({3-(4-chlorophenyl)-5-oxo-4-[(2S)-3,3,3-trifluoro-2-hydroxypropyl]-4,5-dihydro-1H-1,2,4-triazol-1-yl}acetyl)amino]propanamide] showed an IC50 (human V2 receptor) of 220 nM and an IC50 (human V1a receptor) of 12 nM.

`C[C@](NC(=O)Cn1nc(-c2ccc(Cl)cc2)n(/C=C/C(F)(F)F)c1=O)(C(N)=O)c1cccc(C(F)(F)F)c1` [Example 19, (2R)-2-[({3-(4-Chlorophenyl)-5-oxo-4-[(1E)-3,3,3-trifluoroprop-1-en-1-yl]-4,5-dihydro-1H-1,2,4-triazol-1-yl}acetyl)amino]-2-[3-(trifluoromethyl)phenyl]propanamide] was tested, and the IC50 (human V2 receptor) was 14 nM and the IC50 (human V1a receptor) was 13 nM.
